According to patent publication US9701681B2, “Fused ring heteroaryl compounds and their use as Trk inhibitors” (CMG Pharmaceutical Co., Ltd., priority 2014, dated 2017):

Key:
TRK A, B & C kinase = target: T1, TRK A, B & C kinase; test: TRK A, B & C kinase assay (ADP-Glo / HTRF KinEASE-TK); assay type: biochemical; settings: ADP-Glo or HTRF KinEASE-TK kit, isoform not specified, read-out: IC50 (nM) Enzymatic assay
T1 construct: fused on or other part: Carna's Trk kinases are usually GST-tagged cytoplasmic domains
How it was run: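 ADP-Glo: TrkA/B/C (0.4/0.5/3 ng/ul) with poly(Glu,Tyr), 1 h at 30° C, luminescence readout. HTRF: TRKA/B/C (0.3/0.1/0.03 ng/ul) at ATP 14.7/4.77/25.6 uM with TK-substrate, compound 0–100 nM for 40 min at RT, then detection by 665/620 ratio. Both give IC50 by curve fit.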

TF-1 cells = test: Cell proliferation assay (TF-1); settings: 10 ng/ml human β-NGF, 72 hours exposure, read-out: IC50 (nM) Cell-based assay (TF-1)
Experimental: Doxorubicin was purchased from Sigma Aldrich (D1515). All compounds were diluted in DMSO (Sigma Aldrich, D2650). AlamarBlue® cell viability reagent was purchased from Thermo Scientific (88952). CellTiter 96® AQueous One Solution Cell proliferation assay was purchased from Promega. KM12-luc cells were obtained from JCRB (National Institute of Health Sciences, Tokyo, Japan). They were maintained in DMEM medium (GIB-11965-118) supplemented with 10% fetal bovine serum (Gibco, 16000-044) and MEM Non-Essential Amino Acids Solution (Thermo Scientific, 11140-050). TF-1 cells were obtained from ATCC. They were maintained in RPMI medium (GIB-A10491) supplemented with 10% fetal bovine serum (Gibco, 16000-044), GM-CSF (Thermo Scientific, 11140-050), and β-NGF (R&D systems). Trypsin/EDTA was purchased from Gibco (GIB-25300-054, 0.05%). 96-well plates were purchased from Corning Inc.
The proliferation assay was performed for Chemical Compounds 1-61 s in media supplemented with 10% FBS, using AlamarBlue® cell viability reagent or CellTiter 96® AQueous One Solution Cell proliferation assay kit. Cells were cultured in humidified 37° C. incubator with 5% CO2. To evaluate the antiproliferation activity of compounds, TF-1 cells were adjusted to GM-CSF free media (RPMI, 10% FBS, and 1% penicillin-streptomycin) for 16 hr and were seeded in 96-well plates at 30,000 cells/well with medium (RPMI, 10% FBS, 1% penicillin-streptomycin and 10 ng/ml human β-NGF). KM12-luc were seeded at 10,000 cells per well into 96-well plates. After overnight incubation, serial dilutions of compounds were added to triplicate wells, and cells were exposed for 72 hours. The final concentration of DMSO was adjusted to 0.5% in media. Quantitation of cell growth was assessed using two kinds of reagent. 20 ul of AlamarBlue® reagent in an amount equal to 10% of the culture volume was added to each well and were incubated in humidified 37° C. incubator with 5% CO2 for 2 hr. Otherwise, 20 ul of CellTiter 96® reagent was added to each well and were incubated in the same conditions as previously described. Data were plotted, and GI50 values were calculated using GraphPad software. Table 1 below includes the results of the assays.

KM12-luc cells = test: Cell proliferation assay (KM12); settings: 72 hours exposure, read-out: IC50 (nM) Cell-based assay (KM12)
How it was run: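 KM12-luc cells were seeded at 10,000/well. TF-1 cells were first held 16 hr without GM-CSF, then seeded at 30,000/well with 10 ng/ml human β-NGF. Cells were exposed in triplicate to serial dilutions for 72 h in 10% FBS with 0.5% DMSO at 37 °C, read by AlamarBlue or CellTiter 96 for 2 hr, and GI50 was fitted.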

Row | SMILES | IC50 (TRK A, B & C kinase) [nM] | IC50 (TF-1 cells) [nM] | IC50 (KM12-luc cells) [nM]
1 | CC(C)c1nnc(-c2cnn3ccc(N4CCCC4c4cncc(F)c4)nc23)s1 (stereo not drawn) [Chemical Compound 13, 2-(5-(2-(5-fluoropyridin-3-yl)pyrrolidin-1-yl)pyrazolo[1,5-a]pyrimidin-3-yl)-5-isopropyl-1,3,4-thiadiazole] | < 10 | < 100 | < 100
2 | CC(C)c1nnc(-c2cnn3ccc(N4CCCC4c4cc(F)ccc4F)nc23)s1 (stereo not drawn) [Chemical Compound 6, 2-(5-(2-(2,5-difluorophenyl)pyrrolidin-1-yl)pyrazolo[1,5-a]pyrimidin-3-yl)-5-isopropyl-1,3,4-thiadiazole] | < 10 | < 10 | < 10
3 | CC(C)(C)c1nnc(-c2cnn3ccc(N4CCCC4c4cc(F)ccc4F)nc23)s1 (stereo not drawn) [Chemical Compound 10, 2-tert-butyl-5-(5-(2-(2,5-difluorophenyl)pyrrolidin-1-yl)pyrazolo[1,5-a]pyrimidin-3-yl)-1,3,4-thiadiazole] | < 10 | < 10 | < 10
4 | COCCNC(=O)/C=C/c1cnn2ccc(N3CCCC3c3cc(F)ccc3F)nc12 (stereo not drawn) [Chemical Compound 46, (E)-3-(5-(2-(2,5-difluorophenyl)pyrrolidin-1-yl)pyrazolo[1,5-a]pyrimidin-3-yl)-N-(2-methoxyethyl)-acrylamide] | < 10 | < 100 | < 100
5 | Fc1ccc(F)c(C2CCCN2c2ccn3ncc(-c4cnco4)c3n2)c1 (stereo not drawn) [Chemical Compound 29, 5-(5-(2-(2,5-difluorophenyl)pyrrolidin-1-yl)pyrazolo[1,5-a]pyrimidin-3-yl)oxazole] | < 10 | < 100 | < 100
6 | O=C(/C=C/c1cnn2ccc(N3CCCC3c3cc(F)ccc3F)nc12)NC1CC1 (stereo not drawn) [Chemical Compound 43, (E)-N-cyclopropyl-3-(5-(2-(2,5-difluorophenyl)pyrrolidin-1-yl)pyrazolo[1,5-a]pyrimidin-3-yl)acrylamide] | < 10 | < 100 | < 100

More lines, main results first:

Row | IC50 (TRK A, B & C kinase) [nM] | SMILES | IC50 (TF-1 cells) [nM] | IC50 (KM12-luc cells) [nM]
7 | < 10 | CC(C)(C)c1nnc(-c2cnn3ccc(N4CCCC4c4cc(F)ccc4F)nc23)o1 (stereo not drawn) [Chemical Compound 9, 2-tert-butyl-5-(5-(2-(2,5-difluorophenyl)pyrrolidin-1-yl)pyrazolo[1,5-a]pyrimidin-3-yl)-1,3,4-oxadiazole] | < 10 | < 10
8 | < 10 | CC(C)(C)c1nnc(-c2cnn3ccc(N4CCCC4c4cncc(F)c4)nc23)o1 (stereo not drawn) [Chemical Compound 16, 2-tert-butyl-5-(5-(2-(5-fluoropyridin-3-yl)pyrrolidin-1-yl)pyrazolo[1,5-a]pyrimidin-3-yl)-1,3,4-oxadiazole] | < 100 | < 100
9 | < 10 | Cc1nnc(-c2cnn3ccc(N4CCCC4c4cc(F)ccc4F)nc23)[nH]1 (stereo not drawn) [Chemical Compound 32, 5-(2-(2,5-difluorophenyl)pyrrolidin-1-yl)-3-(5-methyl-1H-1,2,4-triazol-3-yl)pyrazolo[1,5-a]pyrimidine] | < 100 | < 100
10 | < 10 | Fc1ccc(F)c(C2CCCN2c2ccn3ncc(-c4cnoc4)c3n2)c1 (stereo not drawn) [Chemical Compound 30, 4-(5-(2-(2,5-difluorophenyl)pyrrolidin-1-yl)pyrazolo[1,5-a]pyrimidin-3-yl)isoxazole] | < 100 | < 100
11 | < 10 | Fc1cncc(C2CCCN2c2ccn3ncc(-c4nnc(C5CC5)s4)c3n2)c1 (stereo not drawn) [Chemical Compound 14, 2-cyclopropyl-5-(5-(2-(5-fluoropyridin-3-yl)pyrrolidin-1-yl)pyrazolo[1,5-a]pyrimidin-3-yl)-1,3,4-thiadiazole] | < 100 | < 100
12 | < 10 | COc1ncc(F)cc1C1CCCN1c1ccn2ncc(-c3nnc(C(C)(C)C)o3)c2n1 (stereo not drawn) [Chemical Compound 28, 2-tert-butyl-5-(5-(2-(5-fluoro-2-methoxypyridin-3-yl)pyrrolidin-1-yl)pyrazolo[1,5-a]pyrimidin-3-yl)-1,3,4-oxadiazole] | < 10 | < 10
13 | < 10 | O=C(/C=C/c1cnn2ccc(N3CCCC3c3cncc(F)c3)nc12)NC1CC1 (stereo not drawn) [Chemical Compound 39, (E)-N-cyclopropyl-3-(5-(2-(5-fluoropyridin-3-yl)pyrrolidin-1-yl)pyrazolo[1,5-a]pyrimidin-3-yl)acrylamide] | < 1000 | < 1000
